In patent US10940139B2, “Compounds that interact with the Ras superfamily for the treatment of cancers, inflammatory diseases, rasopathies, and fibrotic disease” (Shy Therapeutics LLC, priority 2017, dated 2021):

Tested on: MIA-PACA2 pancreatic cancer cell lines
Experiment: Cell proliferation assay (CellTiter 96 AQueous One)
Type: cell-based
Details: Homo sapiens, MIA PaCa-2; MIA-PACA2, same assay as the % inhibition (standard conditions)

Row | Structure (SMILES) | IC50
1 | CN(C)Cc1ccc(-c2csc3c(O)nc(-c4ccccn4)nc23)cc1F [drawing 1721] | 100 to 500 nM
2 | N#Cc1ncn(-c2nc(-c3ccccn3)nc3sc(-c4ccccc4)cc23)n1 [drawing 1595] | 501 to 1000 nM
3 | O=C(c1csc2c(O)nc(-c3ccccn3)nc12)N1CCN(c2ccccc2)CC1 [drawing 1569] | 100 to 500 nM

Same assay, conditions: Homo sapiens, MIA PaCa-2; at 30 μM, MIA-PACA2

Row | Structure (SMILES) | inhibition at 30 µM
4 | COc1cccc(-c2csc3c(O)nc(-c4ccccn4)nc23)c1 [drawing 1748] | 76 to 100%
5 | N#Cc1ccc(N2CCN(C(=O)c3csc4c(O)nc(-c5ccccn5)nc34)CC2)cc1 [drawing 1650] | 25 to 50%
6 | CCCCSc1nc(-c2cccs2)c(C(=O)C(F)(F)F)cc1C#N [drawing 1523] | 76 to 100%
7 | O=C(NCCc1ccc(O)c(O)c1)c1csc2nc(-c3ccccn3)nc(N3CCOCC3)c12 [drawing 1678] | 76 to 100%
8 | O=C(Nc1nnc(-c2ccccn2)[nH]1)C1CCCN(c2ncccn2)C1 (stereo not drawn) [drawing 1426] | 76 to 100%
9 | c1ccc(-c2csc3nc(-c4ccccn4)nc(N4CCN(Cc5cccnc5)CC4)c23)cc1 [drawing 1602] | 76 to 100%
10 | O=C(c1cc2nc(-c3ccccn3)nc(O)c2s1)N1CCN(c2ccccc2)CC1 [drawing 1717] | 76 to 100%
11 | O=C(NCCc1ccncc1)c1csc2nc(-c3ccccn3)nc(N3CCOCC3)c12 [drawing 1672] | 76 to 100%
12 | O=C(Nc1nc(-c2ccccn2)cs1)c1ccncc1 [drawing 1485] | 76 to 100%
13 | COC(=O)c1ccc(C(=O)NCC2(c3ccccc3OC)CCCC2)nc1 [drawing 1528] | 76 to 100%
14 | O=C(c1csc2c(O)nc(-c3ccccn3)nc12)N1CCc2ccccc2CC1 [drawing 1579] | 76 to 100%
15 | Cc1cnc(-c2ccccn2)nc1NC(=O)Cc1ccc2cnccc2c1 [drawing 1732] | 76 to 100%
16 | CN(C)Cc1ccc(-c2csc3c(O)nc(-c4ccccn4)nc23)cc1F [drawing 1721] | 76 to 100%
17 | O=C(c1csc2c(O)nc(-c3ccccn3)nc12)N1CCN(Cc2ccc(O)c(Cl)c2)CC1 [drawing 1658] | 76 to 100%
18 | c1ccc(-c2csc3nc(-c4ccccn4)nc(NN4CCOCC4)c23)cc1 [drawing 1623] | 76 to 100%
19 | Nc1nc(O)c2scc(C(=O)N3CCc4ccccc4CC3)c2n1 [drawing 1561] | 1 to 25%
20 | O=C(c1csc2c(O)nc(-c3ccccn3)nc12)N1CCN(c2cccc(F)c2)CC1 [drawing 1647] | 76 to 100%
21 | O=C(NCCc1cncnc1)c1csc2nc(-c3ccccn3)nc(N3CCOCC3)c12 [drawing 1677] | 76 to 100%
22 | COc1ccccc1C1CN(C(=O)c2csc3c(O)nc(-c4ccccn4)nc23)CCO1 (stereo not drawn) [drawing 1660] | 76 to 100%
23 | O=C(c1csc2c(O)nc(-c3ccccn3)nc12)N1CCNC(c2ccccc2Cl)C1 (stereo not drawn) [drawing 1699] | 76 to 100%

Row | Structure (SMILES) | inhibition at 30 µM
24 | COc1ccc(CCN(C)C(=O)c2csc3nc(-c4ccccn4)nc(N4CCOCC4)c23)cn1 [drawing 1640] | 76 to 100%
25 | N#Cc1ncn(-c2nc(-c3ccccn3)nc3sc(-c4ccccc4)cc23)n1 [drawing 1595] | 76 to 100%
26 | O=C(Nc1nc(-c2ccccn2)cs1)c1cccc(F)c1 [drawing 1474] | 76 to 100%
27 | N#Cc1ccc(CC(=O)Nc2ccnc(-c3ccccn3)n2)cc1 [drawing 1586] | 76 to 100%
28 | Oc1nc(-c2ccccn2)nc2c(-c3ccnn3-c3ccccn3)csc12 [drawing 1780] | 76 to 100%
29 | Oc1nc(-c2ccccn2)nc2c(-c3ccc(OC4CCCCC4)cc3)csc12 [drawing 1763] | 76 to 100%
30 | O=C(CCc1cncnc1)Nc1nc(-c2ccccn2)nc2sccc12 [drawing 1767] | 76 to 100%
31 | CC(=O)N1CCN(c2nc(-c3ccccn3)nc3scc(-c4ccccc4)c23)CC1 [drawing 1626] | 76 to 100%
32 | O=C(c1csc2c(O)nc(-c3ccccn3)nc12)N1CCN(c2ccccc2)CC1 [drawing 1569] | 76 to 100%
33 | COCCCCNC(=O)c1csc2nc(-c3ccccn3)nc(N3CCOCC3)c12 [drawing 1682] | 76 to 100%
34 | Cc1sc2nc(N)nc(O)c2c1C [drawing 1630] | 1 to 25%
35 | O=C(Cn1cnc2ccccc2c1=O)Nc1nc(-c2ccccn2)cs1 [drawing 1481] | 76 to 100%
36 | COCCCn1ccc(Nc2cc(C)nc(-c3ccccn3)n2)n1 [drawing 1512] | 25 to 50%
37 | O=C(CCc1nn[nH]n1)Nc1nc(-c2ccccn2)nc2sccc12 [drawing 1766] | 51 to 75%
38 | N#Cc1ccc(COCC(=O)Nc2ccnc(-c3ccccn3)n2)cc1 [drawing 1689] | 76 to 100%
39 | Cn1nnc2ccc(-c3csc4c(O)nc(-c5ccccn5)nc34)cc21 [drawing 1737] | 76 to 100%
40 | CCN(CC)S(=O)(=O)c1cc(C)c(C)c(NC(=O)CCc2c(C)nc(-c3ccccn3)nc2O)c1 [drawing 1508] | 76 to 100%
41 | CN(C)Cc1ccc(F)c(-c2csc3c(O)nc(-c4ccccn4)nc23)c1 [drawing 1777] | 76 to 100%
42 | CC1(O)CCN(C(=O)c2csc3c(O)nc(-c4ccccn4)nc23)CC1 [drawing 1572] | 76 to 100%
43 | O=C(c1csc2c(O)nc(-c3ccccn3)nc12)N1CCC(N2CCOCC2)CC1 [drawing 1567] | 1 to 25%

Row | Structure (SMILES) | inhibition at 30 µM
44 | Cc1nc(-c2ccccn2)sc1C(=O)Nc1nnc(-c2ccccn2)[nH]1 [drawing 1444] | 76 to 100%
45 | O=C(Nc1nnc(-c2ccccn2)[nH]1)C1CCN(C(=O)c2cccs2)CC1 [drawing 1465] | 76 to 100%
46 | Cc1cnc(-c2ccccn2)nc1NC(=O)C(C)c1ccc(C#N)cc1 (stereo not drawn) [drawing 1690] | 76 to 100%
47 | Cc1[nH]nc(CCCN(C)c2nc(-c3ccccn3)nc3sc(-c4ccccc4)cc23)c1C#N | 76 to 100%
48 | Cc1cc(C(=O)Nc2nc(-c3ccccn3)cs2)no1 [drawing 1475] | 76 to 100%
49 | Oc1nc(-c2ccccn2)nc2c(-c3ccc4c(c3)CCCO4)csc12 [drawing 1778] | 76 to 100%
50 | COc1cc(CCNC(=O)c2csc3nc(-c4ccccn4)nc(N4CCOCC4)c23)ccn1 [drawing 1641] | 51 to 75%
51 | N#Cc1ccc(CCNC(=O)c2csc3nc(-c4ccccn4)nc(N4CCOCC4)c23)cc1 [drawing 1644] | 25 to 50%
52 | O=C(CC1C=CCC1)Nc1nnc(-c2ccccn2)[nH]1 (stereo not drawn) [drawing 1407] | 51 to 75%
53 | O=c1nc(-c2ccccn2)[nH]c2c1sc1ccccc12 [drawing 1499] | 76 to 100%
54 | O=C(Cc1cccs1)Nc1nnc(-c2ccccn2)[nH]1 [drawing 1409] | 1 to 25%
55 | Oc1nc(-c2ccccn2)nc2c(-c3ccc(OC(F)F)cc3F)csc12 [drawing 1752] | 76 to 100%
56 | O=S1(=O)CCN(Cc2cccc(-c3csc4c(O)nc(-c5ccccn5)nc34)c2)CC1 [drawing 1740] | 76 to 100%
57 | O=C(c1csc2c(O)nc(-c3ccccn3)nc12)N1CCNC(Cc2ccccc2)C1 (stereo not drawn) [drawing 1671] | 76 to 100%
58 | CC(=O)C1CCN(c2nc(-c3ccccn3)nc3scc(-c4ccccc4)c23)CC1 | 76 to 100%
59 | O=C(c1csc2c(O)nc(-c3ccccn3)nc12)N1CCN(Cc2ccc(O)cc2)CC1 [drawing 1657] | 1 to 25%
60 | Cc1sc2nc(-c3ccccn3)nc(NCCCO)c2c1-c1ccccc1 [drawing 1516] | 76 to 100%
61 | Cc1ccc(CC(=O)Nc2nnc(-c3ccccn3)[nH]2)cc1 [drawing 1402] | 25 to 50%
62 | CC(c1ccccc1)N1CCN(C(=O)c2csc3c(O)nc(-c4ccccn4)nc23)CC1 (stereo not drawn) [drawing 1697] | 76 to 100%
63 | COc1cccc(C(=O)Nc2nc(-c3ccccn3)cs2)c1 [drawing 1487] | 76 to 100%
